Test results as given in patent publication US12240857B2 (priority 2017, dated 2025).
Read-outs that look alike come from different tables or passages of the source.

Key:
[1] = tested on: EBOV mucin-domain-deleted glycoprotein pseudotyped VSV; assay: microbe, parasite or virus in culture; assay type: cell-based, Zaire ebolavirus; conditions: Zaire ebolavirus, Vero
[2] = tested on: BDBV mucin-domain-deleted glycoprotein pseudotyped VSV; assay: microbe, parasite or virus in culture; assay type: cell-based, Bundibugyo ebolavirus; conditions: Vesicular stomatitis virus, Vero
[3] = tested on: parent VSV virus expressing the native VSV glycoprotein; assay: microbe, parasite or virus in culture; assay type: cell-based; conditions: Vesicular stomatitis virus, Vero, read-out: EC50 Pseudotype Assays VSV
[4] = tested on: full-length Ebola Zaire GP pseudotyped VSV (EBOV_FL); assay: microbe, parasite or virus in culture; assay type: cell-based; conditions: Zaire ebolavirus, read-out: EC50 Pseudotype Assays EBOV_FL
[5] = tested on: full-length Marburgvirus (MARV) GP pseudotyped VSV; assay: microbe, parasite or virus in culture; assay type: cell-based, Marburg marburgvirus; conditions: for EC50: Orthomarburgvirus, read-out: EC50 Pseudotype Assays MARV
[6] = tested on: full-length LASV glycoprotein pseudotyped VSV; assay: microbe, parasite or virus in culture; assay type: cell-based, Lassa virus; conditions: Vesicular stomatitis virus, read-out: EC50 Pseudotype Assays LASV
wild-type Ebola Zaire [7] = tested on: wild-type Ebola Zaire
in vitro [8] = conditions: African green monkey
in vitro [9] = conditions: human, microsomes
in vitro [10] = conditions: mouse, microsomes
in vitro [11] = conditions: monkey, microsomes
wild-type Ebola Zaire [12] = assay: microbe, parasite or virus in culture; conditions: Zaire ebolavirus, HeLa, read-out: Ebola Zaire EC50
[13] = tested on: full-length SUDV GP pseudotyped VSV; assay: microbe, parasite or virus in culture; assay type: cell-based, Sudan ebolavirus; conditions: Vesicular stomatitis virus, read-out: EC50 Pseudotype Assays SUDV
wild-type Sudan Gulu [14] = tested on: wild-type Sudan Gulu
wild-type Sudan Gulu [15] = assay: microbe, parasite or virus in culture; conditions: Sudan ebolavirus, HeLa, read-out: Sudan Gulu EC50
EBOV (Mayinga) [16] = assay: microbe, parasite or virus in culture; assay type: cell-based, Zaire ebolavirus
EBOV (Mayinga) [17] = assay: microbe, parasite or virus in culture; assay type: cell-based, Zaire ebolavirus; conditions: for EC90: Zaire ebolavirus
native EBOV virus = conditions: read-out: published EC50 against native EBOV virus; cited from earlier work
Ebola virus infection = conditions: human, in vivo; cited from earlier work
[18] = human, in vivo; cited from earlier work
[19] = read-out: EC50 Pseudotype Assays EBOV
[20] = read-out: EC50 Pseudotype Assays BDBV

SMILES | EC50 ([1]; read-out: EC50 EBOV) | EC50 [1, 19] | EC50 ([2]; read-out: EC50 BDBV) | EC50 [2, 20] | EC50 [3] | EC50 [4] | EC50 [5] | EC50 [6] | Ebola Zaire SI (CC50/EC50) (wild-type Ebola Zaire [7]) | CC50 (in vitro [8]; CC50) | CC50 (in vitro [8]; Cytotox CC50) | EC50 (wild-type Ebola Zaire [12]) | EC50 ([1]; 24 h, read-out: EC50 EBOV) | EC50 ([2]; 24 h, read-out: EC50 BDBV) | EC50 [13] | MARV pseudotyped virus EC50 concentration (in words) [5] | Sudan Gulu SI (CC50/EC50) (wild-type Sudan Gulu [14]) | EC50 (wild-type Sudan Gulu [15]) | other results
O=C(NC1CCNCC1)C12CC3CC(C1)CC(c1ccccc1)(C3)C2 [Example A63] | 80 nM | 80 nM | 80 nM | 80 nM | > 10000 nM | 40 nM | 2800 nM | > 10000 nM | >16 | > 10000 nM | > 10000 nM | 390 nM | – | – | – | – | – | – | half-life (in vitro [9]): 4.3 h; half-life (in vitro [10]): > 3.5 h; half-life (in vitro [11]): 3.95 h
CC1CCN(CC(O)COc2ccc(C34CC5CC(CC(C5)C3)C4)cc2)CC1 (stereo not drawn) [Example D21, 1-[4-(adamantan-1-yl)phenoxy]-3-(4-methylpiperidin-1-yl)propan-2-ol] | – | 50 nM | – | 110 nM | 3700 nM | 110 nM | 360 nM | 3000 nM | 48.1 | 1100 nM | 3700 nM | 150 nM | 50 nM | 110 nM | 410 nM | sub-micromolar | 38.2 | 190 nM | –
CC12CC3CC(C(=O)N[C@H]4CN5CCC4CC5)(C1)CC(c1ccccc1)(C3)C2 (stereo partly drawn) [Example A45] | 60 nM | 61 nM | 140 nM | 160 nM | > 10000 nM | 120 nM | 290 nM | > 10000 nM | >28 | 7200 nM | > 10000 nM | 380 nM | – | – | – | sub-micromolar | – | – | –
CC12CC3CC(C(=O)N4CCCN(CCCN5CCCC5)CC4)(C1)CC(c1ccccc1)(C3)C2 (stereo not drawn) [Example A43] | 140 nM | – | 80 nM | – | – | – | – | – | 36.3 | 1200 nM | – | 180 nM | – | – | – | – | 104 | 60 nM | –
CCC12CC3CC(C(=O)N[C@H]4CC[C@H](N)CC4)(C1)CC(c1ccccc1)(C3)C2 (stereo partly drawn) [Example A85] | 13 nM | – | 96 nM | – | – | – | – | – | 112 | 12100 nM | – | 100 nM | – | – | – | – | 64 | 180 nM | half-life (in vitro [9]): > 2 h; half-life (in vitro [10]): > 2 h; half-life (in vitro [11]): 1.4 h
c1ccc(C23CC4CC(CC(CNC5CCNCC5)(C4)C2)C3)cc1 [Example C2, N-((3-phenyladamantan-1-yl)methyl)piperidin-4-amine] | 250 nM | – | 200 nM | – | – | – | – | – | 25.3 | 3600 nM | – | 250 nM | – | – | – | – | 109 | 60 nM | –
CC1CCCC(C)N1CC(O)COCCC12CC3CC(CC(C3)C1)C2 (stereo not drawn) [Example D8, 1-[2-(adamantan-1-yl)ethoxy]-3-(2,6-dimethylpiperidin-1-yl) propan-2-ol] | – | 210 nM | – | 80 nM | 3800 nM | 300 nM | 590 nM | 4900 nM | – | 3800 nM | 4000 nM | – | 210 nM | 80 nM | – | sub-micromolar | – | – | –
CCN(CC)CCNc1nc(C23CC4CC(CC(C4)C2)C3)cs1 [Example D32, (2-{[4-(adamantan-1-yl)-1,3-thiazol-2-yl]amino}ethyl) diethylamine] | – | 230 nM | – | 170 nM | > 10000 nM | 200 nM | 610 nM | > 10000 nM | – | 9000 nM | > 10000 nM | – | 230 nM | 170 nM | – | sub-micromolar | – | – | –
CCC12CC3CC(C(=O)NC4CCNCC4)(C1)CC(c1ccccc1)(C3)C2 (stereo not drawn) [Example A80] | 10 nM | 20 nM | 50 nM | 60 nM | > 10000 nM | 40 nM | 1100 nM | > 10000 nM | 137 | 10000 nM | > 10000 nM | 130 nM | – | – | 400 nM | – | 130 | 140 nM | SI50 (CC50/EC50) (EBOV (Mayinga) [16]): 95.6; EC50 (EBOV (Mayinga) [16]; Zaire ebolavirus, Vero): 890 nM; SI90 (CC50/EC90) (EBOV (Mayinga) [17]): 9.6; EC90 (EBOV (Mayinga) [17]): 8900 nM; half-life (in vitro [9]): 1.72 h; half-life (in vitro [10]): > 2 h; half-life (in vitro [11]): 1.48 h
CN(C)CCCNc1nc(C23CC4CC(CC(C4)C2)C3)cs1 [Example D29, (3-{[4-(adamantan-1-yl)-1,3-thiazol-2-yl]amino}propyl) dimethylamine] | – | 170 nM | – | 160 nM | > 10000 nM | 180 nM | 660 nM | > 10000 nM | 66.1 | 9400 nM | > 10000 nM | 920 nM | 170 nM | 160 nM | 1440 nM | sub-micromolar | 203 | 300 nM | –
O=C(NC1CCNCC1)C1C2CC3CC1CC(c1ccccc1)(C3)C2 (stereo not drawn) [Example A81] | 180 nM | – | 110 nM | – | – | – | – | – | 48.9 | 13900 nM | – | 1110 nM | – | – | – | – | 266 | 210 nM | –
OCCN1CCN(CC(O)COc2ccc(C34CC5CC(CC(C5)C3)C4)cc2)CC1 (stereo not drawn) [Example D24, 1[4-(adamantan-1-yl)phenoxy]-3[4-(2-hydroxyethyl)piperazin-1-yl]propan-2-ol] | – | 90 nM | – | 270 nM | > 10000 nM | 80 nM | > 10000 nM | > 10000 nM | 45.6 | 4300 nM | > 10000 nM | 440 nM | 80 nM | 270 nM | 2430 nM | – | 78.7 | 260 nM | –
CC12CC3CC(C(=O)NC4CCNCC4)(C1)CC(c1ccccc1)(C3)C2 (stereo not drawn) [Example A68] | 35 nM | 40 nM | 160 nM | 170 nM | > 10000 nM | 40 nM | 2800 nM | > 10000 nM | 134 | > 10000 nM | > 10000 nM | 180 nM | – | – | 410 nM | – | 181 | 130 nM | half-life (in vitro [9]): 3.12 h; half-life (in vitro [10]): > 4 h; half-life (in vitro [11]): 2.37 h
NC(=O)c1nc(F)c[nH]c1=O [favipiravir] | – | – | – | – | – | – | – | – | – | – | – | – | – | – | – | – | – | – | SI90 (CC50/EC90) (EBOV (Mayinga) [17]): 3; EC90 (EBOV (Mayinga) [17]): 333000 nM; EC50 (native EBOV virus): 67000 nM; drop in viral load (Ebola virus infection): 3-4 log; half-life in humans [18]: 1 to 4 h
CN1CCC(NC(=O)C23CC4CC(C2)CC(c2ccccc2)(C4)C3)CC1 [Example A26] | 120 nM | 120 nM | 90 nM | 90 nM | > 10000 nM | 160 nM | 2700 nM | > 10000 nM | – | 34000 nM | > 10000 nM | – | – | – | – | – | – | – | –
